What was measured:
[1] = target: SARS-CoV-2 Main Protease (SARS-CoV-2) (UniProt P0DTD1)
[2] = target: SARS-CoV-2 Main Protease (SARS-CoV-2) (UniProt P0DTD1); remark: listed apart in the source

| Compound | relative solubility at 20 uM | relative solubility at 100 uM | inhibition ([1]; 50.0 µM) | inhibition ([2]; 20.0 µM) | inhibition ([2]; 50.0 µM) | inhibition ([1]; 20.0 µM) | IC50 [2] | IC50 [1] |
| --- | --- | --- | --- | --- | --- | --- | --- | --- |
| C=CC(=O)NCc1ccc(C(C)NC(=O)OC(C)(C)C)cc1 (stereo not drawn) | 1 | 1.01 | 6.84% | 0% | 0% | – | – | – |
| O=C(Nc1cccnc1)c1cccc(Cl)c1 | 1 | 0.92 | 6.67% | 0% | – | 5.47% | – | – |
| Cc1ccncc1NC(=O)C1(c2cccc(Cl)c2)CC1 | 1.01 | 1 | 61.6% | – | 43.3% | 38.4% | – | – |
| C=CC(=O)N(c1ccc(C(C)(C)C)cc1)C(C(=O)NCCSC)c1cccnc1 (stereo not drawn) | 1 | 0.99 | 68.9% | 56% | 63.9% | 38.5% | 65.4 µM | – |
| C=CC(=O)N(c1ccc(C(C)(C)C)cc1)C(C(=O)NCCc1cccc(F)c1)c1cncc(C#N)c1 (stereo not drawn) | 0.57 | 0.46 | 87.1% | – | 89.2% | 49.6% | 2.47 µM | – |
| O=C(Cc1cccc(Cl)c1)Nn1cnc2ccccc2c1=O | 1 | 1 | 87% | – | 0% | 70.9% | – | – |
| Nc1nnnn1-c1cccc(C(=O)Nc2c(-c3cccnc3)nc3ccccn23)c1 | 0.98 | 0.79 | 2.69% | 11% | 18.3% | -2.5% | – | – |
| C=CC(=O)N(c1ccc(C(C)(C)C)cc1)C(C(=O)NC(C)(C)C)c1cncc(Br)c1 (stereo not drawn) | 0.99 | 0.97 | -13.8% | 0% | 0% | 14.6% | – | – |
| C=CC(=O)N(c1cc(C(C)(C)C)on1)C(C(=O)NCCc1cccc(F)c1)c1cccnc1 (stereo not drawn) | 0.98 | 0.97 | 31.3% | – | 100% | 16.7% | 10.9 µM | – |
| O=C1CC[C@H](C(=O)Nc2cccc(Br)c2)N1 (stereo in doubt) | 1 | 1 | 5.83% | – | 0% | 15% | – | – |
| CCOc1ccccc1OC1CCN(C(=O)c2cc(=O)[nH]c3ccc(F)cc23)C1 (stereo not drawn) | 1 | 0.99 | 18.2% | – | 0% | 6.76% | – | – |
| N#Cc1ccc(S(=O)(=O)N2CCN(C(=O)c3cc(=O)[nH]c4ccc(F)cc34)CC2)cc1 | 0.98 | 0.98 | 10.4% | – | 33.7% | 2.67% | – | – |
| Cc1cccc(C2CN(C(=O)CCl)Cc3ccccc32)c1 (stereo not drawn) | 1 | 0.93 | 99.7% | – | 53.8% | 98.1% | 0.42 µM | – |
| C=CC(=O)N(c1ccc2ncsc2c1)C(C(=O)Nc1ccc(OC)cc1)c1cccnc1 (stereo not drawn) | 0.92 | 0.87 | 15.4% | 0% | – | 4.02% | – | – |
| O=C(Nc1ccccc1)Nc1cnc2ccc([N+](=O)[O-])cc2n1 | 0.86 | 0.84 | 9.06% | – | 0.772% | -15.3% | – | – |
| C=CC(=O)N(c1ccc(N(C)C)c(C)c1)C(C(=O)Nc1ccccc1Br)c1cccnc1 (stereo not drawn) | 0.86 | 0.79 | 8.13% | 0% | – | 2.84% | – | – |
| O=C(CCl)N1CCN(Cc2cc(Cl)cc(Cl)c2)CC1 | 1 | 1 | 69.1% | 100% | 100% | 76.9% | 0.475 µM | – |
| O=C(Cc1cccc(Cl)c1)Nc1cnns1 | 0.99 | 0.99 | 3.34% | – | 48.7% | 4.12% | – | – |
| C=CC(=O)N(c1ccc(S(F)(F)(F)(F)F)cc1)C(C(=O)NC(C)(C)C)c1cccnc1 (stereo not drawn) | 0.98 | 0.9 | 23% | 6.54% | – | 11.1% | – | – |
| O=C(CC1(c2ccccc2)CCCC1)Nc1cccnc1 | 1 | 1 | 3.98% | 0% | 13.9% | – | – | – |
| O=C(NCCc1cccc2ccccc12)c1cc(=O)[nH]c2ccccc12 | 0.87 | 0.73 | 4.42% | – | 7.36% | -40.9% | – | – |
| CN(C(=O)C1CCOc2ccc(Cl)cc21)c1ccc(Cl)cn1 (stereo not drawn) | 0.99 | 0.98 | 9.88% | – | 0% | 0.542% | – | – |
| O=S(=O)(CCc1ccccc1)Nc1cccnc1 | 0.98 | 0.99 | -32.5% | – | 17.2% | -0.803% | – | – |
| N#Cc1cccc(CN2CCN(C(=O)CCl)CC2)c1 | 1.01 | 0.99 | 85.2% | 64.3% | – | 53.4% | 12.2 µM | – |
| C=CC(=O)N(c1ccc(C(C)(C)C)cc1)C(C(=O)NC1CC(C(=O)OC)C1)c1cccnc1 (stereo not drawn) | 0.99 | 0.98 | 4.24% | 0% | 0% | 5.7% | – | – |
| C=CC(=O)N(C1CCC2(CCCC2)C1)C(C(=O)NC(C)(C)C)c1cccnc1 (stereo not drawn) | 0.98 | 0.99 | 6.35% | 0% | – | 5.22% | – | – |
| CC(=O)Nc1ccc(C#N)cc1CN1CCN(C(=O)CCl)CC1 | 1 | 1.01 | 43.4% | 59.2% | – | 20.6% | 17.5 µM | – |

| Compound | relative solubility at 20 uM | relative solubility at 100 uM | inhibition ([1]; 50.0 µM) | inhibition ([2]; 20.0 µM) | inhibition ([2]; 50.0 µM) | inhibition ([1]; 20.0 µM) | IC50 [2] | IC50 [1] |
| --- | --- | --- | --- | --- | --- | --- | --- | --- |
| O=C(Nc1cccc(C(=O)N2CCSCC2)c1)C(F)Cl (stereo not drawn) | 1 | 1 | -16.9% | 0% | 0% | -13.8% | – | – |
| COc1ccncc1NC(=O)C(C)(C)c1cc(F)cc(C#N)c1 | 0.99 | 1 | 30.8% | – | 40.6% | 20% | – | – |
| CC(=O)N[C@@H](C)C(=O)Nc1cnccc1C (stereo in doubt) | 1 | 1 | -7.91% | – | -0.127% | -12.3% | – | – |
| CN1CCC(C(=O)NC2CCCCC2NC(=O)c2ccccc2)CC1 (stereo not drawn) | 0.98 | 0.99 | -15.4% | 0% | 0% | – | – | – |
| O=C1NC(c2cccnc2)C(=O)N1c1cccc(Cl)c1 (stereo not drawn) | 0.85 | 0.91 | 33.9% | – | 69.6% | 18.1% | 57.8 µM | – |
| O=C(CCl)N1CCOc2cccc(-c3cccnc3)c21 | 1 | 1 | 7.44% | – | -5.89% | 1.76% | – | – |
| C=CC(=O)N(c1ccc(C(C)(C)C)cc1)C(C(=O)NCCCC(=O)OCC)c1cccnc1 (stereo not drawn) | 0.99 | 0.96 | 30.9% | 0% | 14.6% | 6.16% | – | – |
| Cc1ccc(NC(=O)C(C#N)C(=O)CC(C)C)cc1 (stereo not drawn) | 0.99 | 1 | 21.5% | 3.11% | 0% | – | – | – |
| COc1ccc(N2CCN(C(=O)c3cc(=O)[nH]c4ccccc34)CC2)cc1 | 1 | 1 | 81.7% | – | 51.4% | 61.4% | 95.7 µM | – |
| CCCC(C(=O)Nc1cnccc1C)c1cccc(Cl)c1 (stereo not drawn) | 1 | 0.99 | 90.6% | – | 78.3% | 77.9% | 5.48 µM | – |
| O=C(CCl)N1CCN(S(=O)(=O)c2cccc(F)c2)CC1 | 1 | 1 | 104% | 96.6% | 96.8% | 97.3% | 2.02 µM | 4.55 µM |
| O=C(Nc1nncn1C1CC1)C1CCOc2ccc(Cl)cc21 (stereo not drawn) | 1 | 1 | 54.6% | – | 1.9% | 46.7% | – | 0.598 µM |
| Cc1ccn(CC(=O)NCc2nccn2CCc2ccccc2)c(=O)c1 | 1 | 1 | -2.52% | – | 0% | -14.1% | – | – |
| Cc1ccncc1-c1nnc(-c2cccc(Cl)c2)o1 | 1 | 0.99 | 13.8% | – | 0.631% | 1.73% | – | – |
| O=C(c1ccccc1)N1CCN(C(=O)C2CCOCC2)CC1 | 1 | 1 | 6.27% | 0.98% | 5.34% | 2.9% | – | – |
| O=C(Nc1cccnc1)Nc1cncc(Cl)c1 | 1 | 1 | 16.8% | 0% | -0.075% | – | – | – |
| CC(=O)N[C@@H](Cc1ccc(O)cc1)C(=O)NC(CN1CCN(C(=O)CCl)CC1)c1ccccc1 (stereo in doubt) | 0.99 | 1 | 41.2% | – | 31.1% | 21.3% | – | – |
| O=C(Cc1ccc2ccccc2c1)Nc1cc(C(F)(F)F)ccn1 | 0.9 | 0.38 | 3.43% | 11% | 29.3% | -2.55% | – | – |
| C=CC(=O)N(c1ccc(C(C)(C)C)cc1)C(C(=O)NC(C)(C)C)c1cncc(OCC)c1 (stereo not drawn) | 0.99 | 0.89 | 2.59% | -0.816% | 15% | -1.87% | – | – |
| O=C(Nc1ccccc1OC1CCN(Cc2ccccc2)CC1)C1CCN(C(=O)CCl)CC1 | 0.94 | 0.95 | 16.5% | – | -1.57% | 6.3% | – | – |
| O=C(NCc1cnn2ccccc12)c1cccnc1OCCO | 1 | 1.01 | -28.9% | 0% | 0% | -18.2% | – | – |
| O=C(CCl)N1CCN(C(c2ccccc2)C2CCOCC2)CC1 (stereo not drawn) | 1 | 0.99 | 103% | – | 84.8% | 80.8% | 1.69 µM | 20.7 µM |
| C=CC(=O)N(c1ccc(SC)cc1)C(C(=O)Nc1ccc(OC)cc1)c1cccnc1 (stereo not drawn) | 0.91 | 0.77 | 27% | 0% | – | 13.5% | – | – |
| C=CC(=O)N(c1ccc(C(C)(C)C)cc1)C(C(=O)Nc1ccc2c(c1)OCCO2)c1cccnc1 (stereo not drawn) | 0.98 | 0.75 | 18.1% | 7.68% | 30.8% | 2.83% | – | – |
| Cn1nnnc1NC(=O)Cc1csc(C(C)(C)C)n1 | 0.99 | 1 | 5.13% | – | 0% | 1.85% | – | – |
| Cc1nn(C(C)C)c(C)c1CC(=O)Nc1nncn1C1CC1 | 1 | 1 | -6.89% | – | 5.29% | -5.19% | – | – |

Reference: the COVID Moonshot data (paper PMC11187573), “Identification of SARS-CoV-2 Mpro inhibitors through deep reinforcement learning for de novo drug design and computational chemistry approaches” (RSC Medicinal Chemistry, 2024)
